Source: ChEMBL document CHEMBL5465560, “Selectivity Literature for EUbOPEN Chemogenomic Library” (2024)

Experiments:
[1] = molecular target: LIM domain kinase 2 (Homo sapiens) (UniProt P53671); assay: Selectivity interaction (LanthaScreen Eu Kinase Binding Assay) EUB0001632a LIMK2; settings: at 10 µM
[2] = molecular target: Serine/threonine-protein kinase SIK3 (Homo sapiens) (UniProt Q9Y2K2); assay: Selectivity interaction (LanthaScreen Eu Kinase Binding Assay) EUB0001632a SIK3; settings: at 10 µM
[3] = molecular target: Endothelin receptor type B (Homo sapiens) (UniProt P24530); assay: Selectivity interaction (Eurofins CEREP Diversity Profile (receptors and ion channels)) EUB0000279b EDNRB; settings: at 10 µM
[4] = test system: Proto-oncogene tyrosine-protein kinase receptor Ret (Homo sapiens), P07949 [M918T]; settings: at 10 µM
[5] = molecular target: Calcium/calmodulin-dependent protein kinase type II subunit delta (Homo sapiens) (UniProt Q13557); assay: Selectivity interaction (ActivX KiNativ screen (kinase selectivity in THP-1 cell lysates)) EUB0000639a CAMK2D; type: subcellular; settings: lysate
Chain of Calcium/calmodulin-dependent protein kinase type II subunit delta (Homo sapiens) (Q13557 whole entry, canonical isoform): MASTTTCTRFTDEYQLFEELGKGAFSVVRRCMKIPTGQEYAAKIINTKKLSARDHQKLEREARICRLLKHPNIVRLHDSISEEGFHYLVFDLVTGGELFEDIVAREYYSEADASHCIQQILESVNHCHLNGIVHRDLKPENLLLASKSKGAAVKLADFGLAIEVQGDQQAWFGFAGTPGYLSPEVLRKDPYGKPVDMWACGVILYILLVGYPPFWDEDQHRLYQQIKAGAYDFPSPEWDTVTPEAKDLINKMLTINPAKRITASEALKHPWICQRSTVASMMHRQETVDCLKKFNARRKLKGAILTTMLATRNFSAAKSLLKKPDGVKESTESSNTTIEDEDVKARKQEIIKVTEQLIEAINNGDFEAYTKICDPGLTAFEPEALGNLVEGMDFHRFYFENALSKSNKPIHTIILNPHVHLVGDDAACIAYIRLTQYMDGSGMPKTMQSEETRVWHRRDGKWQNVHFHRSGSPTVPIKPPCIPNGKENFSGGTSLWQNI

[6] = molecular target: T1, Phosphorylase b kinase gamma catalytic chain, liver/testis isoform (Homo sapiens) (UniProt P15735); assay: Selectivity interaction (Kinase panel (Invitrogen)) EUB0000639a PHKG2; settings: at 200 nM
T1 sequence (whole entry): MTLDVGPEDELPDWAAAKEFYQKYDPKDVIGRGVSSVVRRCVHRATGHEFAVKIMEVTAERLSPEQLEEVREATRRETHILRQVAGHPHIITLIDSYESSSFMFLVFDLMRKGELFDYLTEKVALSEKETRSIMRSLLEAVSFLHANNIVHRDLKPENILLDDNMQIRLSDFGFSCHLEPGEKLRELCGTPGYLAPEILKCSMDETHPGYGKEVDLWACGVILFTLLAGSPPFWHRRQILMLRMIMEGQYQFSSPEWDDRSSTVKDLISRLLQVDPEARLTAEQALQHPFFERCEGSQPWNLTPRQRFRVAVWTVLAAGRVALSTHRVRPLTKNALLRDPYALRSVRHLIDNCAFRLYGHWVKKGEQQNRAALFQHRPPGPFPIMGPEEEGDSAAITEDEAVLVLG

[7] = molecular target: Protein arginine N-methyltransferase 5 (Homo sapiens, UniProt O14744); assay: Selectivity interaction (Scintillation proximity assays) EUB0000255b PRMT5
[8] = molecular target: Serine/threonine-protein kinase MRCK alpha (Homo sapiens) (UniProt Q5VT25); assay: Selectivity interaction (ProQinase) EUB0000171b CDC42BPA
Chain of Serine/threonine-protein kinase MRCK alpha (Homo sapiens) (Q5VT25 whole entry): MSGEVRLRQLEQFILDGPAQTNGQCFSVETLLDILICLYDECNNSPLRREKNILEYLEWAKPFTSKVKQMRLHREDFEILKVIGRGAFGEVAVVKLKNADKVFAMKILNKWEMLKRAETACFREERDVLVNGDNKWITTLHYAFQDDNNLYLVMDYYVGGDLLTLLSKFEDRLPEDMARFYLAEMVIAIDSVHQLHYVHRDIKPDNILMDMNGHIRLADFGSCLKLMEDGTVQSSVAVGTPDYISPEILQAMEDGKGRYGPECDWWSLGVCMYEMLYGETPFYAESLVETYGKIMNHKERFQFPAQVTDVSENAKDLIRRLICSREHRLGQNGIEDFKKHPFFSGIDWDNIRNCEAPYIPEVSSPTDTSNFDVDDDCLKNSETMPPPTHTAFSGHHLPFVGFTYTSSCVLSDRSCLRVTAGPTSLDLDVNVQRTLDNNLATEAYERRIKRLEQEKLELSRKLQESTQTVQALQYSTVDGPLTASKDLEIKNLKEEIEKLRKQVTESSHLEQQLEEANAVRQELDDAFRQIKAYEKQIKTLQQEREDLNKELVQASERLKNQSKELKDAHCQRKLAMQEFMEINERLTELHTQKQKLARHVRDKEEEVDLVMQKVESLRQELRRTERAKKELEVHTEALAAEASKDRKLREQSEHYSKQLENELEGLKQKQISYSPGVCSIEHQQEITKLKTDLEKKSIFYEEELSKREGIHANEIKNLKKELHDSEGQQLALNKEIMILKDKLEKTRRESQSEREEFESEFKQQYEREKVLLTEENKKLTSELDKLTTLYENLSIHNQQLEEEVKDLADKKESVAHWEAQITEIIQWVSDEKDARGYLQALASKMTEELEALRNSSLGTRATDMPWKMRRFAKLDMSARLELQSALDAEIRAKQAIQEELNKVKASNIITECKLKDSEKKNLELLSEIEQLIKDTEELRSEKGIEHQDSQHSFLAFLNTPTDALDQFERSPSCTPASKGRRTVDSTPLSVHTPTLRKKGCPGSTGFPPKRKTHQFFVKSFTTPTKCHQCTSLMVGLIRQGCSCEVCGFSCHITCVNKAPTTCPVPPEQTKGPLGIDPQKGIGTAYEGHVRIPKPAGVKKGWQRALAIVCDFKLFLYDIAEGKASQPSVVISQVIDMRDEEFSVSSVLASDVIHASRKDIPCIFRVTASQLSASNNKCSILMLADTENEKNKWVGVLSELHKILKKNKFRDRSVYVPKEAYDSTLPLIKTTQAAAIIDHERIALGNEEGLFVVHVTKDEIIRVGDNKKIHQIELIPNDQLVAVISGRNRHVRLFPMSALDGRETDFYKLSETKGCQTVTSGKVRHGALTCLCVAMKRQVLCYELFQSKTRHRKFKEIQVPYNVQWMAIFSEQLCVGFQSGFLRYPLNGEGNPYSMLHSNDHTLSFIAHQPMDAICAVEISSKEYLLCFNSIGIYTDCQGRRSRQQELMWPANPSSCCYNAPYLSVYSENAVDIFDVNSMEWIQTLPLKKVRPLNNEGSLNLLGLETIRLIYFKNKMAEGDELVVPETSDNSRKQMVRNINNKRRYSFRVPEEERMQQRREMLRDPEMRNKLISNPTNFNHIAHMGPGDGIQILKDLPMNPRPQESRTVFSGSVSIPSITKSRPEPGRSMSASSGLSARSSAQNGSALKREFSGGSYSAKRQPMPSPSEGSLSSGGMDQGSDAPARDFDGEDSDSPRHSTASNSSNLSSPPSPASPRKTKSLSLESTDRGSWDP

[9] = molecular target: High affinity nerve growth factor receptor (Homo sapiens, UniProt P04629); assay: Selectivity interaction (ProQinase) EUB0000171b NTRK1
Chain of High affinity nerve growth factor receptor (P04629 33-796 limits assumed): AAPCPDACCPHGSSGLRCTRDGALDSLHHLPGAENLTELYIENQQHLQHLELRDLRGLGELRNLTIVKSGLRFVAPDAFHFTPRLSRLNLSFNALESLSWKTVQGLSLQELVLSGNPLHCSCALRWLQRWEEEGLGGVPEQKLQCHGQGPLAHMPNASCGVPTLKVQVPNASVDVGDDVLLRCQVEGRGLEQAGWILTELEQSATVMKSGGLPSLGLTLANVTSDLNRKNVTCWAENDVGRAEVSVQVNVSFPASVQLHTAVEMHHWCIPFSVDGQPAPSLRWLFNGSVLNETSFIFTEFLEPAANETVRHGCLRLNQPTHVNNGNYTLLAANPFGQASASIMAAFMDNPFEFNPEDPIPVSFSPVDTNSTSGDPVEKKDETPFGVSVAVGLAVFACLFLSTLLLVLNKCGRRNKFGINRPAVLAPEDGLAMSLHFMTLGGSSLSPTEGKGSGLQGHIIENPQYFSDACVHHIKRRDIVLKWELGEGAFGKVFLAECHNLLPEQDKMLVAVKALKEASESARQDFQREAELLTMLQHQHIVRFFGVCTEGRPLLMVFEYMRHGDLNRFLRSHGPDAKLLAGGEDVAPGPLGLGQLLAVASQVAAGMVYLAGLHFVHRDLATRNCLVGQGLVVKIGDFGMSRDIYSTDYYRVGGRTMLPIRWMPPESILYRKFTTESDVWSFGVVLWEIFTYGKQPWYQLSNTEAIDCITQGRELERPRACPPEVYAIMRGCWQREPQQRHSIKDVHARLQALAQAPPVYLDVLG

[10] = molecular target: Wee1-like protein kinase 2 (Homo sapiens) (UniProt P0C1S8); assay: Selectivity interaction (KinomeScan (DiscoverX)) EUB0000595a WEE2; settings: at 10 µM
[11] = molecular target: Serine/threonine-protein kinase WNK2 (Homo sapiens) (UniProt Q9Y3S1); assay: Selectivity interaction (KinomeScan (DiscoverX)) EUB0001049a WNK2; settings: at 1 µM
[12] = molecular target: T2, Serine/threonine-protein kinase Chk1 (Homo sapiens) (UniProt O14757); assay: Selectivity interaction (Kinase screening (Upstate/Millipore)) EUB0000604a CHEK1
T2 sequence (whole entry): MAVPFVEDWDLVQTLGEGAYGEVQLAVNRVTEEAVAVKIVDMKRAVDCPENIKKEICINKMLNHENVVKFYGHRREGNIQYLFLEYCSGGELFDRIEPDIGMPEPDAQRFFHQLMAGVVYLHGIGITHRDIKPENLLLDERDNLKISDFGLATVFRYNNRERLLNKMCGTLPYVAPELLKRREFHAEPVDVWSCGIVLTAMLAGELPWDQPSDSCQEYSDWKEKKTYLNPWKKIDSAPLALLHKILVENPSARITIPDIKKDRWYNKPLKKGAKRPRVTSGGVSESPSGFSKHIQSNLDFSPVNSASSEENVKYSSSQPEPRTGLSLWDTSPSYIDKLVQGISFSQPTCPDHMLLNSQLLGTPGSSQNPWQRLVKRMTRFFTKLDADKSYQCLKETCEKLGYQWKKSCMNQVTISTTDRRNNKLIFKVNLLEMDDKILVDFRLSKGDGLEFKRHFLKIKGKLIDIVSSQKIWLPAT

[13] = molecular target: Tyrosine-protein kinase ABL2 (Homo sapiens, UniProt P42684); assay: Selectivity interaction (Ambit KINOMEscan and KiNATiv profiling in Jurkat cells) EUB0000090b ABL2; type: cell-based; settings: at 1 µM
Chain of Tyrosine-protein kinase ABL2 (P42684 whole entry): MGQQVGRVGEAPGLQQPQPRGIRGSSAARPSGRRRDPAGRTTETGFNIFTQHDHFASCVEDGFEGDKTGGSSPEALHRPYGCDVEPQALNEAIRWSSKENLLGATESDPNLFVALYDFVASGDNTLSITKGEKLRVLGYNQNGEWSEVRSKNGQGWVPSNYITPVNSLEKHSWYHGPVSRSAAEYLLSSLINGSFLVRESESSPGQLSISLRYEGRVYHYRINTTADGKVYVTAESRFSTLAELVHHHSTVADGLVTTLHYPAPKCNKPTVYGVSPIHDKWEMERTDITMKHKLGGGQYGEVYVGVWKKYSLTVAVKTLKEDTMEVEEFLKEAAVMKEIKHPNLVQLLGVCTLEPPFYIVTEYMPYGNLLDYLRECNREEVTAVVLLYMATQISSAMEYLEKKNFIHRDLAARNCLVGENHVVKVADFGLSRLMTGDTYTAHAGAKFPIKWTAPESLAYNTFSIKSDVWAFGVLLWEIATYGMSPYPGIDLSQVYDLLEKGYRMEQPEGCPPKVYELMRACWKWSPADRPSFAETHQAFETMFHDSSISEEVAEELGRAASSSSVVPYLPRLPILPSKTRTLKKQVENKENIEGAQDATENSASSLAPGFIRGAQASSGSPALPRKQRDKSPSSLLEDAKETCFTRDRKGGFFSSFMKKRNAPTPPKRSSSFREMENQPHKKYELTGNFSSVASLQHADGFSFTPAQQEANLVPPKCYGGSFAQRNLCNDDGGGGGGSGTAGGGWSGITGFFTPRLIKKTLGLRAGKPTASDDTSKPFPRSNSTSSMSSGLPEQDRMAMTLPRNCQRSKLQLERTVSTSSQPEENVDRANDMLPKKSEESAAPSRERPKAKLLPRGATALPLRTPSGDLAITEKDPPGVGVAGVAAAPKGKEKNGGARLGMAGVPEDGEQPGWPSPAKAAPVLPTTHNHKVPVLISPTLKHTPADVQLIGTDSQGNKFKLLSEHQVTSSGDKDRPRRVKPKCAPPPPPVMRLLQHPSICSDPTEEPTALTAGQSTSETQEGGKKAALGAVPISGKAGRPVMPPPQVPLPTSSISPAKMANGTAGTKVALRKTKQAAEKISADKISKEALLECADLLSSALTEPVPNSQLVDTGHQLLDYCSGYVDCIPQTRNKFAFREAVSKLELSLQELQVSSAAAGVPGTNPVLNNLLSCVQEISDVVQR

[14] = molecular target: Calcium/calmodulin-dependent protein kinase type 1D (Homo sapiens) (UniProt Q8IU85); assay: Selectivity interaction (Ambit KINOMEscan and KiNATiv profiling in Jurkat cells) EUB0000090b CAMK1D; type: cell-based; settings: at 1 µM
[15] = molecular target: Casein kinase I isoform gamma-3 (Homo sapiens) (UniProt Q9Y6M4); assay: Selectivity interaction (KinomeScan (DiscoverX)) EUB0000045b CSNK1G3
Chain of Casein kinase I isoform gamma-3 (Homo sapiens) (Q9Y6M4 whole entry, looked up, canonical isoform): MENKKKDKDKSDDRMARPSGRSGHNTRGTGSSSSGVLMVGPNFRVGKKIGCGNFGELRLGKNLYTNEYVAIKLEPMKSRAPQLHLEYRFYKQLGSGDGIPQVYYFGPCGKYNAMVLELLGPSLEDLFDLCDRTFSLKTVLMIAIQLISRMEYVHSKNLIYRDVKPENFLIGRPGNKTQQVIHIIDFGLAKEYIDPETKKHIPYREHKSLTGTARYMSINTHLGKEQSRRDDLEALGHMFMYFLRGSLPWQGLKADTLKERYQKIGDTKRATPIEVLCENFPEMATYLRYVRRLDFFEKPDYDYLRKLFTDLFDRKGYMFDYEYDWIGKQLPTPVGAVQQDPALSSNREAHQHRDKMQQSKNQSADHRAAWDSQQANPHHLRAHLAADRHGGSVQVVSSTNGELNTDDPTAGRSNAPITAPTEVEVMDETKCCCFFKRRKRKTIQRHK

[16] = molecular target: Serine/threonine-protein kinase SIK2 (Homo sapiens) (UniProt Q9H0K1); assay: Selectivity interaction (KinomeScan (DiscoverX)) EUB0000229b SIK2; settings: at 10 µM
[17] = molecular target: Casein kinase I isoform delta (Homo sapiens, UniProt P48730); assay: Selectivity interaction (KinomeScan (DiscoverX)) EUB0000092b CSNK1D; settings: at 10 µM
[18] = molecular target: Receptor tyrosine-protein kinase erbB-4 (Homo sapiens, UniProt Q15303); assay: Selectivity interaction (KinomeScan (DiscoverX)) EUB0001619a ERBB4; settings: at 1 µM
[19] = molecular target: T3, Dual specificity mitogen-activated protein kinase kinase 7 (Homo sapiens) (UniProt O14733); assay: Selectivity interaction (KinomeScan (DiscoverX)) EUB0001619a MAP2K7; settings: at 1 µM
T3 sequence (whole entry): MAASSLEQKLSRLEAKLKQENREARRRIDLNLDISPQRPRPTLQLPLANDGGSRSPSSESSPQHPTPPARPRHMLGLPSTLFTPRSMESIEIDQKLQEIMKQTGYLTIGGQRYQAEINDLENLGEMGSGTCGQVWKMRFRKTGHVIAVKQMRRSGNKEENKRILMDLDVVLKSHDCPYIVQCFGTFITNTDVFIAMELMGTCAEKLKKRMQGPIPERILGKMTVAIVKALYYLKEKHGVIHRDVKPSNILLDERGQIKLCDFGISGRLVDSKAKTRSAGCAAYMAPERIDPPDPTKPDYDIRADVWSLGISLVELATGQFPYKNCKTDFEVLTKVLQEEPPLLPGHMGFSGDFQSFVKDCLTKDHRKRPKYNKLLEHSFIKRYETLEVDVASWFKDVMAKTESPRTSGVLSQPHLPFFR

[20] = molecular target: Protein-tyrosine kinase 2-beta (Homo sapiens) (UniProt Q14289); assay: Selectivity interaction (KinomeScan (DiscoverX)) EUB0001619a PTK2B; settings: at 1 µM
[21] = molecular target: Serine/threonine-protein kinase SBK1 (Homo sapiens) (UniProt Q52WX2); assay: Selectivity interaction (KinomeScan (DiscoverX)) EUB0001619a SBK1; settings: at 1 µM
Chain of Serine/threonine-protein kinase SBK1 (Homo sapiens) (Q52WX2 whole entry): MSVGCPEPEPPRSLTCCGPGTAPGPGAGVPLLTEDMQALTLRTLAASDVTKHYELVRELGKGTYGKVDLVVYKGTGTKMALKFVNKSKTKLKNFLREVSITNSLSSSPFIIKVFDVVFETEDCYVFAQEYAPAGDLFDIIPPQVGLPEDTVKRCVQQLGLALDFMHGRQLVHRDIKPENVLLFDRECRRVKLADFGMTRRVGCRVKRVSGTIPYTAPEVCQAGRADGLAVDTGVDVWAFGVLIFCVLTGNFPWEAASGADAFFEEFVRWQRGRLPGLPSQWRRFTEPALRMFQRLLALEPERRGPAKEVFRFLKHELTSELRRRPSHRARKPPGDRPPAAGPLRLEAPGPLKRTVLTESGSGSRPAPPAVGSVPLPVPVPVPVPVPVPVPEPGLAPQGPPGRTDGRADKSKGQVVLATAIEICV

Compound: Cn1cc(-n2cnc3c(NCc4nc5cc(Cl)c(Cl)cc5[nH]4)nc(N4CCOCC4)nc32)cn1
- % of inhibition [1]: -10.5%
- % of inhibition [2]: 12.2%

Compound: CC(=O)c1cc(-c2ccccc2OCC2CC2)c2ncccn12
- % of control [3]: 84%

Compound: CCN(CC)CCCCNc1ncc2cc(-c3cc(OC)cc(OC)c3)c(NC(=O)NC(C)(C)C)nc2n1
- % of control [4]: 100%

Compound: CC[C@@H]1[C@H](F)C(=O)N[C@@H]1COc1nccc2cc(C(N)=O)c(OC)cc12 [ZIMLOVISERTIB]
- % of inhibition ([5]; at 0.01 µM): 14.2%
- % of inhibition ([5]; at 0.04 µM): 9.6%
- % of inhibition ([5]; at 0.2 µM): 16.3%
- % of inhibition ([5]; at 1 µM): 36.4%
- % of inhibition ([5]; at 5 µM): 61.2%
- % of inhibition [6]: 24.7%

Compound: COCCN1CCC(c2cc(CN(C)C(=O)c3cccc(Oc4ccccc4)c3)ccn2)CC1
- IC50 [7]: > 10 µM

Compound: C=CC(=O)Nc1cccc(C(=O)Nc2ccc(Nc3cc(-c4[nH]c(SC)nc4C)ccn3)cc2)c1
- % of control ([8]; at 1 µM): 102%
- % of control ([8]; at 5 µM): 91%
- % of control ([9]; at 1 µM): 81%
- % of control ([9]; at 5 µM): 58%

Compound: COCC(=O)NC/C=C/c1ccc2ncnc(Nc3ccc(Oc4ccc(C)nc4)c(C)c3)c2c1 [CP-724714]
- % of control [10]: 81%

Compound: COc1cc(Nc2nc(C)cc(-c3cnn4nc(OC)ccc34)n2)cc(C(F)(F)F)c1
- % of control [11]: 100%

Compound: Cc1cnc(Nc2ccc(F)cc2Cl)nc1-c1c[nH]c(C(=O)N[C@H](CO)c2cccc(Cl)c2)c1
- % of inhibition [12]: 40%

Compound: CN(C)C/C=C/C(=O)Nc1ccc(C(=O)N2CCCC(Nc3ncc(Cl)c(-c4c[nH]c5ccccc45)n3)C2)cc1 (stereo not drawn)
- % of control [13]: 92%
- % of control [14]: 78%

Compound: C=CC(=O)Nc1cc(-n2c(=O)ccc3cnc4ccc(-c5ccc(NS(C)(=O)=O)cc5)cc4c32)ccc1C
- % of control ([15]; at 1 µM): 100%
- % of control ([15]; at 10 µM): 84%

Compound: COc1cc(N(C)c2ccnc3ccc(C(F)(F)F)cc23)cc(OC)c1OC
- % binding [16]: 98%

Compound: CCC(=O)N1CCN(c2ccc(-n3c(=O)ccc4cnc5ccc(-c6cnc7ccccc7c6)cc5c43)cc2C(F)(F)F)CC1
- % of control [17]: 4.3%

Compound: N#Cc1cccc(-c2c[nH]c3ncnc(N4CCOCC4)c23)c1
- % of control [18]: 100%
- % of control [19]: 80%
- % of control [20]: 100%
- % of control [21]: 100%
